Source: patent US20230310445A1, “LOX ENZYME INHIBITING METHODS AND COMPOSITIONS” (ANOVIA BIOSCIENCES, INC., priority 2020, published 2023)
pIC50: −log10 of the molar value.

What was measured:
[1] = molecular target: T1, Bovine lysyl oxidase (LOX) (Bos taurus, UniProt P33072); assay: LOX inhibition assay (fluorometric, cadaverine/Amplex Red/HRP); assay type: biochemical; conditions: IC50 class; bovine tendon LOX, cadaverine substrate; read-out: Activity Range LOX
T1 construct: from tissue; host or cells: adult bovine tendon
T1 sequence (P33072 170-418): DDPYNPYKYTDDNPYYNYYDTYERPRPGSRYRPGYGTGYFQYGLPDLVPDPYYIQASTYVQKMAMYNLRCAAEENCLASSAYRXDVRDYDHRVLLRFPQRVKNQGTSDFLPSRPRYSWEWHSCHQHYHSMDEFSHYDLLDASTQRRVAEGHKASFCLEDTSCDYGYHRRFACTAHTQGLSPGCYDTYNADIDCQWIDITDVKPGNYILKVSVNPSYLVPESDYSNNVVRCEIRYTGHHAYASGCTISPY
Protocol: (§1) The ability of compounds to inhibit prototypic LOX was determined using a fluorometric assay. This assay measures the activity of lysyl oxidases by coupling the reaction with horseradish peroxidase-catalyzed […]. The activity assay protocol uses cadaverine as substrate that releases hydrogen peroxide upon transformation by prototypic LOX enzyme present in the sample. Hydrogen peroxide is in turn detected using a red fluorescence substrate for HRP-coupled reactions (Amplex Red Enzyme Assays, Thermo Scientific Fisher). This leads to increase in fluorescence that can be easily detected at Ex/Em=540/590 nm in a fluorescence microplate reader.
Enzyme: Bovine lysyl oxidase (LOX) was extracted by adapting the methodology from [Kagan et al. 1979 and Borel et al. 2001.] from bovine tendon: Frozen adult bovine tendon was placed in room temperature water to defrost, and then membranes were removed and the remaining tissue cut into 1 cm pieces. The material was first passed through a course mesh meat grinder, and this mince was passed through a fine mesh grinder. The mince was homogenized in 10 v/w of buffer (16 mM sodium phosphate buffer pH 7.8, 400 mM NaCl) using a Waring blender. The homogenate was centrifuged at 15,000×g for 15 min at 4° C. After centrifugation, the supernatant was discarded and the pellets resuspended in 10 volumes of the same buffer. The mixture was blended again and centrifuged with the same settings. This time the pellets were blended in 3 volumes of extraction buffer (16 mM sodium phosphate buffer pH 7.8) and left to incubate at 4° C. for 2 h. After this time, the slurry was centrifuged with the same settings as described above. The supernatant was used in an ultrafiltration step to remove large proteins by size exclusion through a 30 kDalton filter (EMD Millipore). The filtrate was mixed with DEAE Sephadex (GE Healthcare), or passed over a MonoQ FPLC column. After two washes, one in 16 mM sodium phosphate buffer pH 7.8, 380 mM NaCl, and another in 16 mM sodium phosphate buffer pH 7.8, the proteins were eluted with 16 mM sodium phosphate pH 7.8, 10 μM CuSO4, and 4 M urea. Fractions containing Lox activity were collected and stored frozen at −70° C.
Reaction: Final concentration in the LOX assay was as following and performed in a total volume of […]:
Experimental procedure: 7 μl of freshly prepared reaction buffer were delivered to reaction wells. Compounds were resuspended in 100% DMSO at 10 mM and delivered into buffer using acoustic technology (Echo550; nanoliter range). A 2.85× solution of LOX protein in reaction buffer was prepared (“LOX solution”) and 7 μl of LOX solution was added into the reaction wells. Buffer only was added to column 1 for no protein control. Reactions were incubated for 30 minutes at 37° C. A 3.33× mixture of cadaverine, Amplex Red, and HRP (“Substrate/Detection Mix) was prepared and subsequently 6 μL of the mixture was added to each reaction well. Progress of reactions was monitored for 120 minutes at 37° C. using Clariostar plate reader (ex530-12, ems 600-40). For all activity assays, pan-LOX inhibitor CCT365623 (Tang et al, 2017) and LOXL2/LOXL3 inhibitor PAT-1251 (PharmaKea) were included as standards.
Data analysis: Slope of the linear portion of the progress curve was calculated using Clariostar software. Typical analysis interval was between 20-50 min, but varied between experiments. The background subtracted signals (No protein wells were considered as background) were converted to % activity relative to DMSO controls. Data was analyzed using GraphPad Prism 4 with “sigmoidal dose-response (variable slope)”; 4 parameters with Hill Slope. Constraints: Bottom=Constant equal to 0. Top=Must be less than 120.

[2] = molecular target: T2, Recombinant human LOXL2 (lysyl oxidase like 2) (Homo sapiens, UniProt Q9Y4K0); assay: LOXL2 inhibition assay (fluorometric, cadaverine/Amplex Red/HRP); assay type: biochemical; conditions: IC50 class; recombinant human LOXL2, cadaverine substrate; read-out: Activity Range LOXL2
T2 construct: purchased R&D systems
T2 sequence (Q9Y4K0 26-774): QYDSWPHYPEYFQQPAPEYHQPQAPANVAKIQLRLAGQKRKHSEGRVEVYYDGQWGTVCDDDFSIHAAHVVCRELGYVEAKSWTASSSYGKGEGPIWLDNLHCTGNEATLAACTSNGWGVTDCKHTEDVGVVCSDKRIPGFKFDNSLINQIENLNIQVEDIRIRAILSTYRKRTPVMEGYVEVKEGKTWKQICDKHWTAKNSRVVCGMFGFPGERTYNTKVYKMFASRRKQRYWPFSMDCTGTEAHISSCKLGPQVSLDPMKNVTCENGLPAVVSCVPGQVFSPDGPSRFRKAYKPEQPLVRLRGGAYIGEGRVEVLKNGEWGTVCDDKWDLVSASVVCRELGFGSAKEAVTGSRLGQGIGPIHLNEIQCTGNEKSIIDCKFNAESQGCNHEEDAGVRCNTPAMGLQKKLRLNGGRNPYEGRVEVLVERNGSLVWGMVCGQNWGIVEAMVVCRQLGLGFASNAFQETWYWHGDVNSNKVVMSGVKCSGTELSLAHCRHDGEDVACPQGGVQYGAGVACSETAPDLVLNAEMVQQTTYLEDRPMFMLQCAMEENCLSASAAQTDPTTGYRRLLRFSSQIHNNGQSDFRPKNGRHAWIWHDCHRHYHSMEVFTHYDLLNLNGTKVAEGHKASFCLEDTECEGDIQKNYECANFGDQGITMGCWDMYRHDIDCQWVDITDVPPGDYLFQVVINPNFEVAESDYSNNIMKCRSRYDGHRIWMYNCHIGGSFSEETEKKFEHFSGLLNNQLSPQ
Protocol: as §1, with “inhibit one or more of the lysyl oxidases LOXL2 and/or LOXL3” for “inhibit prototypic LOX”, “by the specific” for “by prototypic”, “LOX family” for “LOX”
Enzymes: Recombinant human LOXL2 (lysyl oxidase like 2) and recombinant human LOXL3 (lysyl oxidase like 3) were purchased from R&D systems and assays were performed in 1.2 M urea, 50 mM sodium borate buffer pH 8.0, and 10 mM CaCl.
Reaction: Final concentration in the LOXL2 and LOXL3 assays were as following and performed in a total volume of […]:
Experimental procedure: 5 μl of freshly prepared reaction buffer were delivered to reaction wells. Compounds were resuspended in 100% DMSO at 10 mM and delivered into buffer using acoustic technology (Echo550; nanoliter range). A 3× solution of LOXL2 or LOXL3 in reaction buffer was prepared (“enzyme solution”) and 5 μL of enzyme solution was added into the reaction wells. Buffer only was added to column 1 for no protein control. Reactions were incubated for 30 minutes at 37° C. A 3×mixture of cadaverine, Amplex Red, and HRP (“Substrate/Detection Mix) was prepared and subsequently 5 μL of the mixture added to each reaction well. Progress of reactions was monitored for 60 minutes at 37° C. using Clariostar plate reader (ex 530-12, ems 600-40). For all activity assays, pan-LOX inhibitor CCT365623 (Tang et al, 2017) and LOXL2/LOXL3 inhibitor PAT-1251 (PharmaKea) were included as standards.
Data analysis: Slope of the linear portion of the progress curve was calculated using Clariostar software. Typical analysis interval was between 8-30 min, but varied between experiments. The background subtracted signals (No protein wells are considered as background) were converted to % activity relative to DMSO controls. Data was analyzed using GraphPad Prism 4 with “sigmoidal dose-response (variable slope)”; 4 parameters with Hill Slope. Constraints: Bottom=Constant equal to 0. Top=Must be less than 120.

SMILES	pIC50 [1]	pIC50 [2]
CS(=O)(=O)N1C[C@@H](c2ccccc2)C[C@@H](S(=O)(=O)c2ccc(CN)cc2)C1 (racemic) [Example 26, cis-(4-((1-(Methylsulfonyl)-5-phenylpiperidin-3-yl)sulfonyl)phenyl)methanamine 2,2,2-trifluoroacetate]	4.52 to 6.00	≥ 6.30
NCc1ccc(S(=O)(=O)N2C[C@@H](C(=O)N3CCNCC3)C[C@@H](c3ccccc3)C2)s1 (racemic) [Example 15, cis-(1-((5-(Aminomethyl)thiophen-2-yl)sulfonyl)-5-phenylpiperidin-3-yl)(piperazin-1-yl)methanone 2,2,2-trifluoroacetate]	6.00 to 6.30	≥ 6.30
NCc1ccc(S(=O)(=O)N2C[C@@H](C(=O)N3CCCCC3)C[C@@H](c3ccccc3)C2)s1 (racemic) [Example 11, cis-(1-((5-(Aminomethyl)thiophen-2-yl)sulfonyl)-5-phenylpiperidin-3-yl)(piperidin-1-yl)methanone 2,2,2-trifluoroacetate]	≥ 6.30	≥ 6.30
NCc1cccc(S(=O)(=O)N2C[C@@H](C(=O)N3CCS(=O)(=O)CC3)C[C@@H](c3ccccc3)C2)c1 (racemic) [Example 77]	< 4.52	4.52 to 6.00
CS(=O)(=O)[C@@H]1C[C@H](Oc2cccc(CN)c2)CN(c2ccccc2)C1 (racemic) [Example 21, cis-(3-((-5-(Methylsulfonyl)-1-phenylpiperidin-3-yl)oxy)phenyl)methanamine 2,2,2-trifluoroacetate]	< 4.52	6.00 to 6.30

Results, then the compound that gave them:

pIC50 [1]	pIC50 [2]	SMILES
< 4.52	≥ 6.30	NCc1cccc(S(=O)(=O)[C@H]2C[C@@H](C(=O)N3CCOCC3)CN(C3CCCCC3)C2)c1 (racemic) [Example 142, cis-(5-((3-(Aminomethyl)phenyl)sulfonyl)-1-cyclohexylpiperidin-3-yl)(morpholino)methanone 2,2,2-trifluoroacetate]
4.52 to 6.00	6.00 to 6.30	CN1CCN(C(=O)[C@H]2C[C@@H](N3CCCCC3)CN(S(=O)(=O)c3cc(CN)ccn3)C2)CC1 (racemic) [Example 150, cis-(1′-((4-(Aminomethyl)pyridin-2-yl)sulfonyl)-[1,3′-bipiperidin]-5′-yl)(4-methylpiperazin-1-yl)methanone 2,2,2-trifluoroacetate]
< 4.52	6.00 to 6.30	CS(=O)(=O)N1CCN(C(=O)[C@H]2C[C@@H](c3ccccc3)CN(S(=O)(=O)c3cccc(CN)c3)C2)CC1 (racemic) [Example 78, cis-(1-((3-(Aminomethyl)phenyl)sulfonyl)-5-phenylpiperidin-3-yl)(4-(methylsulfonyl)piperazin-1-yl)methanone 2,2,2-trifluoroacetate]
4.52 to 6.00	≥ 6.30	NCc1ccnc(S(=O)(=O)N2C[C@H](C(=O)N3CCOCC3)C[C@H](N3CCCCC3=O)C2)c1 (racemic) [Example 186, cis-1′-((4-(Aminomethyl)pyridin-2-yl)sulfonyl)-5′-(morpholine-4-carbonyl)-[1,3′-bipiperidin]-2-one 2,2,2-trifluoroacetate]
< 4.52	4.52 to 6.00	NCc1cncc(S(=O)(=O)N2C[C@@H](C(=O)N3CCOCC3)C[C@@H](c3ccccc3)C2)c1 (racemic) [Example 131, cis-(1-((5-(Aminomethyl)pyridin-3-yl)sulfonyl)-5-phenylpiperidin-3-yl)(morpholino)methanone 2,2,2-trifluoroacetate]
< 4.52	4.52 to 6.00	NCc1cccc(O[C@H]2C[C@H](c3ccccc3)CN(C(=O)N3CCS(=O)(=O)CC3)C2)c1 (racemic) [Example 82, trans-(3-(3-(Aminomethyl)phenoxy)-5-phenylpiperidin-1-yl)(1,1-dioxidothiomorpholino)methanone]
4.52 to 6.00	≥ 6.30	NCc1cc(S(=O)(=O)N2C[C@H](C(=O)N3CCS(=O)(=O)CC3)C[C@@H](c3ccccc3)C2)ccn1 (racemic) [Example 130T, trans-(1-((2-(Aminomethyl)pyridin-4-yl)sulfonyl)-5-phenylpiperidin-3-yl)(1,1-dioxidothiomorpholino)methanone 2,2,2-trifluoroacetate]
